Experimental findings from patent publication US20060025566A1, “Macrocyclic modulators of the ghrelin receptor” (Tranzyme Pharma Inc., priority 2003, published 2006) are described below.

A value given as a limit tells only on which side of the number the result lay.

The target in one test is T1, human growth hormone secretagogue receptor (hGHS-R1a) (Homo sapiens, UniProt Q92847).
T1 construct: purchased PerkinElmer BioSignal #RBHGHSM, lot#1887; host or cells: HEK-293, stably transfected (membranes)
T1 sequence (Q92847 whole entry): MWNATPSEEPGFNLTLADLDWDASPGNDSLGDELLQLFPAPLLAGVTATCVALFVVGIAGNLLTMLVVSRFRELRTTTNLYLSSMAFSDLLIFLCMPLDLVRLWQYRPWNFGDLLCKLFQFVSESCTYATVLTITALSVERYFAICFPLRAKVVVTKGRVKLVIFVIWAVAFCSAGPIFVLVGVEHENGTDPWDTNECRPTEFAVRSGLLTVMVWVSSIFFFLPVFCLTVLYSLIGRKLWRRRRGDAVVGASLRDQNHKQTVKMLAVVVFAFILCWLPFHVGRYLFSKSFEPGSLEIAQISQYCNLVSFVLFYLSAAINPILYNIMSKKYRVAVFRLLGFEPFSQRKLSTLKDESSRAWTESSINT
Kind of test: Competitive radioligand binding assay (ghrelin receptor), [125I]-ghrelin displacement on GHS-R/HEK 293 membranes. As to conditions: [125I]-ghrelin competition, GHS-R/HEK 293 membranes; Table 3A; read-out: Binding Activity at the Human Ghrelin Receptor. As to the method: The competitive binding assay at the human growth hormone secretagogue receptor (hGHS-R1a) was carried out analogously to assays described in the literature.
Multiscreen Harvest plates-GF/C (Millipore, #MAHFC 1H60) • 4. […] Bottom seal (Millipore, #MATAH0P00) • 7. […] Binding Buffer: 25 mM Hepes (pH 7.4), 1 mM CaCl2, 5 mM MgCl2, 2.5 mM EDTA, 0.4% BSA Assay Volumes
Competition experiments were performed in a 300 μl filtration assay format. • 1. 220 μL of membranes diluted in binding buffer • 2. 40 μL of compound diluted in binding buffer • 3. […] Compound Handling
Compounds were provided frozen on dry ice at a stock concentration of 10 mM diluted in 100% DMSO and stored at −80° C. until the day of testing. On the test day, compounds were allowed to thaw at rt O/N and then diluted in assay buffer according to the desired test concentrations.
Plates were sealed with TopSeal-A, vortexed gently and incubated at rt for 30 min. The reaction was arrested by filtering samples through Multiscreen Harvest plates (pre-soaked in 0.5% polyethyleneimine) using a Tomtec Harvester, washed 9 times with 500 μL of cold 50 mM Tris-HCl (pH 7.4, 4° C.), and then plates were air-dried in a fumehood for 30 min. A bottom seal was applied to the plates prior to the addition of 25 μL of MicroScint-0 to each well. […] Results were expressed as counts per minute (cpm).
Data were analyzed by GraphPad Prism (GraphPad Software, San Diego, Calif.) using a variable slope non-linear regression analysis.
• 1. […] Key Aspects of Method • 1. […] Results
With `CCC(C)C1NC(=O)C2(CCCC2)NC(=O)C(CC(C)C)NCCOc2ccccc2C=CCNC1=O` (centres unmarked) [compound 166], the Ki is over 10 µM.

As for `CCC(C)C1NC(=O)C2(CCCC2)NC(=O)C(CC(C)C)NCCOc2ccccc2C=CCNC1=O` (centres unmarked) [compound 167], the Ki is over 10 µM. Take `CC[C@H](C)[C@@H]1NCCOc2ccccc2CCCNC(=O)[C@@H](CCc2ccccc2)NC(=O)[C@@H](C)N(C)C1=O` [compound 169]: the Ki is 0.01 to 0.1 µM. For the compound `CC[C@H](C)[C@@H]1NCCOc2ccccc2CCCNC(=O)[C@@H](Cc2ccncc2)NC(=O)[C@@H](C)N(C)C1=O` [compound 171], the Ki lay in the range of 0.01 to 0.1 µM. On the same count and under the same terms, the value for `CCC1NC(=O)C(C)N(C)C(=O)C(C(C)CC)NCCOc2ccccc2CCCNC1=O` (centres unmarked) [compound 172] was over 10 µM; that for `CCCC1NC(=O)C(C)N(C)C(=O)C(C(C)CC)NCCOc2ccccc2CCCNC1=O` (centres unmarked) [compound 173] was 0.1 to 1 µM. For the compound `CC[C@H](C)[C@@H]1NCCOc2ccccc2CCCNC(=O)[C@@H](C(C)C)NC(=O)[C@@H](C)N(C)C1=O` [compound 174], the Ki lay in the range of 0.1 to 1 µM.

With `CC[C@@H](C)[C@H]1NC(=O)[C@@H](C)N(C)C(=O)[C@H]([C@@H](C)CC)NCCOc2ccccc2CCCNC1=O` [compound 175], the Ki was 0.1 to 1 µM. Regarding `CC[C@H]1NC(=O)[C@@H](C)N(C)C(=O)[C@H]([C@@H](C)CC)NCCOc2ccccc2CCCNC1=O` [compound 205], the Ki was over 10 µM. Turning to `CC(C)C1NCCOc2ccccc2CCCNC(=O)C(Cc2ccccc2)NC(=O)C2(CCNCC2)NC1=O` (centres unmarked) [compound 207], the Ki was over 10 µM. Regarding `CC[C@H](C)[C@@H]1NCCOc2ccccc2CCCNC(=O)[C@@H]([C@@H](C)CC)NC(=O)[C@@H](C)N(C)C1=O` [compound 209], the Ki was in the range of 0.1 to 1 µM. Take `CCC(C)C1NCCOc2ccccc2CCCNC(=O)C(Cc2ccccc2)NC(=O)C(CC)N(C)C1=O` (centres unmarked) [compound 212]: the Ki lay in the range of 0.1 to 1 µM. As for `CCC(C)C1NCCOc2ccccc2CCCNC(=O)C(Cc2ccccc2)NC(=O)C2CSCN2C1=O` (centres unmarked) [compound 213], the Ki was over 1 µM. For `CCC(C)C1NCCOc2ccccc2CCCNC(=O)C(Cc2ccccc2)NC(=O)C(COC(C)(C)C)NC1=O` (centres unmarked) [compound 215], the Ki fell in the range of 1 to 10 µM. For the compound `CC(C)[C@@H]1NCCOc2ccccc2CCCNC(=O)[C@H](Cc2ccccc2)NC(=O)C2(CC2)NC1=O` [compound 216], the Ki was 1 to 10 µM.

Still in this test, the particulars now being: binding activity at the human ghrelin receptor, [125I]-ghrelin competition, GHS-R/HEK 293 membranes; read-out: Ki.
Turning to `CN1CC(=O)N[C@H](Cc2ccccc2)C(=O)NCCCc2ccccc2OCCN[C@@H](CCCCN)C1=O` [compound 74], the Ki is 1 to 10 µM. As to `CN1CC(=O)N[C@H](Cc2ccccc2)C(=O)NCCCc2ccccc2OCCN[C@@H](CO)C1=O` [compound 76], the Ki was over 10 µM. The same measure, in the same setting: the value for `CN1CC(=O)NC(Cc2ccccc2)C(=O)NCCCc2ccccc2OCCNCC1=O` (centres unmarked) [compound 80] was over 10 µM.

In the case of `CCCC1NCCOCCNC(=O)C(Cc2ccccc2)NC(=O)CN(C)C1=O` (centres unmarked) [compound 81], the Ki was over 10 µM. In the case of `CCCC1NCCC#CCCNC(=O)C(Cc2ccccc2)NC(=O)CN(C)C1=O` (centres unmarked) [compound 82], the Ki was over 10 µM.

As for `CCCC1NCCC=CCCNC(=O)C(Cc2ccccc2)NC(=O)CN(C)C1=O` (centres unmarked) [compound 83], the Ki is over 10 µM. Turning to `CCCC1NCc2cccc(c2)CNC(=O)C(Cc2ccccc2)NC(=O)CN(C)C1=O` (centres unmarked) [compound 84], the Ki fell in the range of 1 to 10 µM. Take `CCCC1NCc2cccc(c2)CCNC(=O)C(Cc2ccccc2)NC(=O)CN(C)C1=O` (centres unmarked) [compound 85]: the Ki is over 10 µM. Still for that read-out and setting: the value for `CCCC1NCc2csc(n2)CNC(=O)C(Cc2ccccc2)NC(=O)CN(C)C1=O` (centres unmarked) [compound 86] was over 10 µM; that for `CC(C)C[C@@H]1NCCOc2ccccc2CCCNC(=O)[C@H](Cc2ccc(O)cc2)NC(=O)C2(CCCC2)NC1=O` [compound 88] was 1 to 10 µM; that for `CC(C)C[C@@H]1NCCOc2ccccc2CCCNC(=O)[C@H](Cc2c[nH]c3ccccc23)NC(=O)C2(CCCC2)NC1=O` [compound 89] was 1 to 10 µM. Take `CC(C)C[C@@H]1NCCOc2ccccc2CCCNC(=O)[C@H](CCc2ccccc2)NC(=O)C2(CCCC2)NC1=O` [compound 90]: the Ki is 1 to 10 µM. Regarding `CC(C)CC1NCCOc2ccccc2CCCNC(=O)C(CCCCN)NC(=O)C2(CCCC2)NC1=O` (centres unmarked) [compound 91], the Ki was over 10 µM. As for `CC(C)C[C@@H]1NCCOc2ccccc2CCCNC(=O)[C@H](CCC(=O)O)NC(=O)C2(CCCC2)NC1=O` [compound 92], the Ki is over 10 µM.

Consider `CC(C)CC1NCCOc2ccccc2CCCNC(=O)C(Cc2ccccc2)NC(=O)C(C)NC1=O` (centres unmarked) [compound 93], for which the Ki fell in the range of 1 to 10 µM. The same measure, in the same setting: the value for `CC(C)C[C@@H]1NCCOc2ccccc2CCCNC(=O)[C@H](Cc2ccccc2)NC(=O)[C@@H](C)NC1=O` [compound 94] was 1 to 10 µM.

With `CC(C)C[C@@H]1NCCOc2ccccc2CCCNC(=O)[C@H](Cc2ccccc2)NC(=O)C(C)(C)NC1=O` [compound 95], the Ki is 1 to 10 µM. For `CC(C)CC1NCCOc2ccccc2CCCNC(=O)C(Cc2ccccc2)NC(=O)C2(CCCC2)NC1=O` (centres unmarked) [compound 96], the Ki is over 10 µM. For `CC(C)C[C@H]1NCCOc2ccccc2CCCNC(=O)[C@@H](Cc2ccccc2)NC(=O)C2(CCCC2)NC1=O` [compound 98], the Ki is over 10 µM. Turning to `C[C@@H]1NCCOc2ccccc2CCCNC(=O)[C@H](Cc2ccccc2)NC(=O)C2(CCCC2)NC1=O` [compound 100], the Ki was 0.1 to 1 µM. As to `CCCC[C@@H]1NCCOc2ccccc2CCCNC(=O)[C@H](Cc2ccccc2)NC(=O)C2(CCCC2)NC1=O` [compound 101], the Ki lay in the range of 0.1 to 1 µM. Take `O=C1NC2(CCCC2)C(=O)N[C@@H](Cc2ccccc2)C(=O)NCCCc2ccccc2OCCN[C@H]1Cc1ccccc1` [compound 102]: the Ki was in the range of 0.1 to 1 µM. Take `NCCCC[C@@H]1NCCOc2ccccc2CCCNC(=O)[C@H](Cc2ccccc2)NC(=O)C2(CCCC2)NC1=O` [compound 103]: the Ki was over 10 µM. For the compound `O=C(O)CC[C@@H]1NCCOc2ccccc2CCCNC(=O)[C@H](Cc2ccccc2)NC(=O)C2(CCCC2)NC1=O` [compound 104], the Ki was over 10 µM. Turning to `O=C1NC2(CCCC2)C(=O)N[C@@H](Cc2ccccc2)C(=O)NCCCc2ccccc2OCCN[C@H]1CO` [compound 105], the Ki was in the range of 0.1 to 1 µM. Regarding `O=C1CNCCOc2ccccc2CCCNC(=O)C(Cc2ccccc2)NC(=O)C2(CCCC2)N1` (centres unmarked) [compound 112], the Ki was 1 to 10 µM. Still for that read-out and setting: the value for `CC(C)CC1NCc2ccc(cc2)CCNC(=O)C(Cc2ccccc2)NC(=O)C2(CCCC2)NC1=O` (centres unmarked) [compound 115] was over 10 µM. Still for that read-out and setting: the value for `CC(C)C[C@@H]1NCCOc2ccccc2CCCNC(=O)[C@@H](Cc2ccccc2)NC(=O)[C@@H](C)N(C)C1=O` [compound 118] was 0.01 to 0.1 µM; that for `C[C@@H]1C(=O)N[C@H](Cc2ccccc2)C(=O)NCCCc2ccccc2OCCN[C@@H]([C@@H](C)O)C(=O)N1C` [compound 119] was 0.1 to 1 µM.

`CO[C@H](C)[C@@H]1NCCOc2ccccc2CCCNC(=O)[C@@H](Cc2ccccc2)NC(=O)[C@@H](C)N(C)C1=O` [compound 120]: the Ki fell in the range of 0.01 to 0.1 µM. Same read-out and setting: the value for `C[C@@H]1C(=O)N[C@H](Cc2ccccc2)C(=O)NCCCc2ccccc2OCCNC2(CC2)C(=O)N1C` [compound 121] was over 10 µM; that for `O=C1NC2(CCCC2)C(=O)NC(Cc2ccccc2)C(=O)NCC=Cc2ccccc2OCCNC1Cc1ccc(F)cc1` (centres unmarked) [compound 125] was over 10 µM. On to `COc1ccc(CC2NCCOc3ccccc3C=CCNC(=O)C(Cc3ccccc3)NC(=O)C3(CCCC3)NC2=O)cc1` (centres unmarked) [compound 127], for which the Ki is 0.1 to 1 µM. With `O=C1NC2(CCCC2)C(=O)NC(Cc2ccccc2)C(=O)NCC=Cc2ccccc2OCCNC1Cc1cccc2ccccc12` (centres unmarked) [compound 130], the Ki lay in the range of 1 to 10 µM. With `O=C1NC2(CCCC2)C(=O)N[C@@H](Cc2ccccc2)C(=O)NC/C=C/c2ccccc2OCCN[C@H]1Cc1cccnc1` [compound 132], the Ki is over 1 µM. In the case of `CCC(C)C1NCCOc2ccccc2CCCNC(=O)C(Cc2ccccc2)NC(=O)C(C(C)C)N(C)C1=O` (centres unmarked) [compound 144], the Ki was 0.1 to 1 µM. As for `CCC(C)C1NCCOc2ccccc2CCCNC(=O)C(Cc2ccccc2)NC(=O)C(CC(C)C)N(C)C1=O` (centres unmarked) [compound 147], the Ki was over 1 µM.

On to `CC[C@H](C)[C@@H]1NCCOc2ccccc2CCCNC(=O)[C@@H](Cc2ccccc2)NC(=O)[C@H](CC(C)C)N(C)C1=O` [compound 148], for which the Ki is over 1 µM. Take `CCC(C)C1NCCOc2ccccc2CCCNC(=O)C(Cc2ccccc2)NC(=O)C(C(C)CC)N(C)C1=O` (centres unmarked) [compound 149]: the Ki was 1 to 10 µM.

With `CC[C@H](C)[C@@H]1NCCOc2ccccc2CCCNC(=O)[C@@H](Cc2ccccc2)NC(=O)[C@@H](CO)NC1=O` [compound 151], the Ki was over 1 µM.

Still in this test, the particulars now being: binding activity at the human ghrelin receptor, [125I]-ghrelin displacement; read-out: Ki.
For the compound `CC[C@H](C)[C@@H]1NCCOc2ccccc2CCCNC(=O)[C@@H](Cc2c[nH]cn2)NC(=O)[C@@H](C)N(C)C1=O` [compound 305], the Ki fell in the range of 0.1 to 1 µM.
